#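 Abbreviation: GI50, concentration required for 50% inhibition of growth. TGI denotes the concentration required for complete inhibition of growth.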
# How the values were obtained:
# Test in all cases: NCI anticancer screen, dose series, 384-well format
# 786-0 renal = test system: 786-0 renal
# A498 renal = test system: A498 renal
# A549 NSCLC = test system: A549 NSCLC
# ACHN renal = test system: ACHN renal
# BT-549 breast = test system: BT-549 breast
# CAKI-1 renal = test system: CAKI-1 renal
# CCRF-CEM leukemia = test system: CCRF-CEM leukemia
# COLO 205 colon = test system: COLO 205 colon
# DU-145 prostate = test system: DU-145 prostate
# EKVX NSCLC = test system: EKVX NSCLC
# HCC-2998 colon = test system: HCC-2998 colon
# HCT-116 colon = test system: HCT-116 colon
# HCT-15 colon = test system: HCT-15 colon
# HL-60(TB) leukemia = test system: HL-60(TB) leukemia
# HOP-62 NSCLC = test system: HOP-62 NSCLC
# HOP-92 NSCLC = test system: HOP-92 NSCLC
# HS 578T breast = test system: HS 578T breast
# HT29 colon = test system: HT29 colon
# IGROV1 ovarian = test system: IGROV1 ovarian
# K-562 leukemia = test system: K-562 leukemia
# KM12 colon = test system: KM12 colon
# M14 melanoma = test system: M14 melanoma
# MALME-3M melanoma = test system: MALME-3M melanoma
# MCF7 breast = test system: MCF7 breast
# MDA-MB-231 breast = test system: MDA-MB-231 breast
# MDA-MB-435 melanoma = test system: MDA-MB-435 melanoma
# MDA-MB-468 breast = test system: MDA-MB-468 breast
# MOLT-4 leukemia = test system: MOLT-4 leukemia
# NCI-H226 lung = test system: NCI-H226 lung
# NCI-H23 lung = test system: NCI-H23 lung
# NCI-H322M lung = test system: NCI-H322M lung
# NCI-H460 NSCLC = test system: NCI-H460 NSCLC
# NCI-H522 lung = test system: NCI-H522 lung
# NCI/ADR-RES ovarian = test system: NCI/ADR-RES ovarian
# OVCAR-3 ovarian = test system: OVCAR-3 ovarian
# OVCAR-4 ovarian = test system: OVCAR-4 ovarian
# OVCAR-5 ovarian = test system: OVCAR-5 ovarian
# OVCAR-8 ovarian = test system: OVCAR-8 ovarian
# PC-3 prostate = test system: PC-3 prostate
# RPMI-8226 leukemia = test system: RPMI-8226 leukemia
# RXF 393 renal = test system: RXF 393 renal
# SF-268 CNS = test system: SF-268 CNS
# SF-295 CNS = test system: SF-295 CNS
# SF-539 CNS = test system: SF-539 CNS
# SK-MEL-28 melanoma = test system: SK-MEL-28 melanoma
# SK-MEL-5 melanoma = test system: SK-MEL-5 melanoma
# SK-OV-3 ovarian = test system: SK-OV-3 ovarian
# SN12C renal = test system: SN12C renal
# SNB-19 CNS = test system: SNB-19 CNS
# SNB-75 CNS = test system: SNB-75 CNS
# SR leukemia = test system: SR leukemia
# SW-620 colon = test system: SW-620 colon
# T-47D breast = test system: T-47D breast
# TK-10 renal = test system: TK-10 renal
# U251 glioblastoma = test system: U251 glioblastoma
# UACC-257 melanoma = test system: UACC-257 melanoma
# UO-31 renal = test system: UO-31 renal
smiles,measurement,setting,value
CS(=O)c1ccc(-c2nc(-c3ccc(F)cc3)c(-c3ccncc3)[nH]2)cc1 (centres undefined),GI50,786-0 renal,17.8 µM
same,TGI,786-0 renal,36.5 µM
same,GI50,A498 renal,16.7 µM
same,TGI,A498 renal,55.2 µM
same,GI50,A549 NSCLC,38.9 µM
same,TGI,A549 NSCLC,> 100 µM
same,GI50,ACHN renal,19 µM
same,TGI,ACHN renal,65.1 µM
same,GI50,BT-549 breast,41.7 µM
same,TGI,BT-549 breast,> 100 µM
same,GI50,CAKI-1 renal,22.2 µM
same,TGI,CAKI-1 renal,88.4 µM
same,GI50,CCRF-CEM leukemia,17.7 µM
same,TGI,CCRF-CEM leukemia,42.8 µM
same,GI50,COLO 205 colon,11.8 µM
same,TGI,COLO 205 colon,24.5 µM
same,GI50,DU-145 prostate,30.4 µM
same,TGI,DU-145 prostate,93.2 µM
same,GI50,EKVX NSCLC,32.6 µM
same,TGI,EKVX NSCLC,> 100 µM
same,GI50,HCC-2998 colon,23.2 µM
same,TGI,HCC-2998 colon,38.7 µM
same,GI50,HCT-116 colon,23.3 µM
same,TGI,HCT-116 colon,50.9 µM
same,GI50,HCT-15 colon,18.4 µM
same,TGI,HCT-15 colon,37.1 µM
same,GI50,HL-60(TB) leukemia,16.4 µM
same,TGI,HL-60(TB) leukemia,30.3 µM
same,GI50,HOP-62 NSCLC,23 µM
same,TGI,HOP-62 NSCLC,50.1 µM
same,GI50,HOP-92 NSCLC,34.8 µM
same,TGI,HOP-92 NSCLC,> 100 µM
same,GI50,HS 578T breast,20.7 µM
same,TGI,HS 578T breast,39 µM
same,GI50,HT29 colon,11.1 µM
same,TGI,HT29 colon,24 µM
same,GI50,IGROV1 ovarian,13.9 µM
same,TGI,IGROV1 ovarian,28.9 µM
same,GI50,K-562 leukemia,27.8 µM
same,TGI,K-562 leukemia,> 100 µM
same,GI50,KM12 colon,27.4 µM
same,TGI,KM12 colon,62.3 µM
same,GI50,M14 melanoma,6.96 µM
same,TGI,M14 melanoma,29.4 µM
same,GI50,MALME-3M melanoma,11.9 µM
same,TGI,MALME-3M melanoma,28.1 µM
same,GI50,MCF7 breast,26.8 µM
same,TGI,MCF7 breast,90.7 µM
same,GI50,MDA-MB-231 breast,35.6 µM
same,TGI,MDA-MB-231 breast,> 100 µM
same,GI50,MDA-MB-435 melanoma,33.2 µM
same,TGI,MDA-MB-435 melanoma,> 100 µM
same,GI50,MDA-MB-468 breast,10.5 µM
same,TGI,MDA-MB-468 breast,29.2 µM
same,GI50,MOLT-4 leukemia,25.1 µM
same,TGI,MOLT-4 leukemia,62.2 µM
same,GI50,NCI-H226 lung,19.9 µM
same,TGI,NCI-H226 lung,34.4 µM
same,GI50,NCI-H23 lung,26.7 µM
same,TGI,NCI-H23 lung,52.6 µM
same,GI50,NCI-H322M lung,37.5 µM
same,TGI,NCI-H322M lung,96.2 µM
same,GI50,NCI-H460 NSCLC,27.8 µM
same,TGI,NCI-H460 NSCLC,64.1 µM
same,GI50,NCI-H522 lung,14.8 µM
same,TGI,NCI-H522 lung,35.2 µM
same,GI50,NCI/ADR-RES ovarian,98.1 µM
same,TGI,NCI/ADR-RES ovarian,> 100 µM
same,GI50,OVCAR-3 ovarian,29.3 µM
same,TGI,OVCAR-3 ovarian,68.8 µM
same,GI50,OVCAR-4 ovarian,38.2 µM
same,TGI,OVCAR-4 ovarian,93.8 µM
same,GI50,OVCAR-5 ovarian,40.4 µM
same,TGI,OVCAR-5 ovarian,> 100 µM
same,GI50,OVCAR-8 ovarian,24 µM
same,TGI,OVCAR-8 ovarian,90.4 µM
same,GI50,PC-3 prostate,40.3 µM
same,TGI,PC-3 prostate,> 100 µM
same,GI50,RPMI-8226 leukemia,23.6 µM
same,TGI,RPMI-8226 leukemia,40.3 µM
same,GI50,RXF 393 renal,17.8 µM
same,TGI,RXF 393 renal,33.5 µM
same,GI50,SF-268 CNS,43.4 µM
same,TGI,SF-268 CNS,> 100 µM
same,GI50,SF-295 CNS,20.1 µM
same,TGI,SF-295 CNS,35.1 µM
same,GI50,SF-539 CNS,29.5 µM
same,TGI,SF-539 CNS,71.6 µM
same,GI50,SK-MEL-28 melanoma,12.1 µM
same,TGI,SK-MEL-28 melanoma,25.6 µM
same,GI50,SK-MEL-5 melanoma,14.7 µM
same,TGI,SK-MEL-5 melanoma,28.4 µM
same,GI50,SK-OV-3 ovarian,22.7 µM
same,TGI,SK-OV-3 ovarian,58.2 µM
same,GI50,SN12C renal,48.5 µM
same,TGI,SN12C renal,> 100 µM
same,GI50,SNB-19 CNS,56.8 µM
same,TGI,SNB-19 CNS,> 100 µM
same,GI50,SNB-75 CNS,44.2 µM
same,TGI,SNB-75 CNS,> 100 µM
same,GI50,SR leukemia,13.1 µM
same,TGI,SR leukemia,26.4 µM
same,GI50,SW-620 colon,31.5 µM
same,TGI,SW-620 colon,49.2 µM
same,GI50,T-47D breast,27.4 µM
same,TGI,T-47D breast,83.9 µM
same,GI50,TK-10 renal,16.8 µM
same,TGI,TK-10 renal,37.4 µM
same,GI50,U251 glioblastoma,27.8 µM
same,TGI,U251 glioblastoma,62.4 µM
same,GI50,UACC-257 melanoma,15.3 µM
same,TGI,UACC-257 melanoma,30 µM
same,GI50,UO-31 renal,21.4 µM
same,TGI,UO-31 renal,69.9 µM

# From PubChem BioAssay (NCI)
